Where no end group is shown, it is not given here.
Tested on: cows with leucosis
Experiment: hematological and cytomorphological blood indices of cows with leucosis after PRP-1 administration in vivo
Conditions: 48 h after 1st and 2nd administration; microscopic analysis
Method: The cows with leucosis were administered with the PRP-1 solution in concentration 1.57×10^−4 g in 1 ml in a dose of 4×10^−3 ml/kg live weight of animal twice in 48 h.
The blood samples were taken from the jugular vain of animal into the test tubes with anti-coagulant Trilon-B before administration, in 48 h after 1st and 2nd administrations, as well as in 33 days after the 2nd administration. The blood hematomorphological and cytomorphological studies were carried out according to the available methods of veterinary hematology.

AGAPEPAEPAQPGVY [PRP-1, Ala-Gly-Ala-Pro-Glu-Pro-Ala-Glu-Pro-Ala-Gln-Pro-Gly-Val-Tyr]
morphological changes of small lymphocytes with high resistance, neutrophils, eosinophils and monocytes in blood smears: no any morphological changes
